ChEMBL document CHEMBL2321746, “Cloning, characterization, and sulfonamide and thiol inhibition studies of an α-carbonic anhydrase from Trypanosoma cruzi, the causative agent of Chagas disease” (J Med Chem, 2013)

Tests used:
Format in all cases: functional
[1] = test system: Trypanosoma cruzi; experiment: Antitrypanosomal activity against Trypanosoma cruzi Y epimastigotes at 256 uM incubated for 48 hrs by resazurin dye reduction based ELISA method
[2] = test system: Trypanosoma cruzi; experiment: Antitrypanosomal activity against Trypanosoma cruzi DM28 epimastigotes at 256 uM incubated for 48 hrs by resazurin dye reduction based ELISA method; conditions: DM28, 48 h
[3] = test system: Trypanosoma cruzi; experiment: Antitrypanosomal activity against Trypanosoma cruzi Y epimastigotes at 128 uM incubated for 48 hrs by resazurin dye reduction based ELISA method
[4] = test system: Trypanosoma cruzi; experiment: Antitrypanosomal activity against Trypanosoma cruzi Y epimastigotes at 64 uM incubated for 48 hrs by resazurin dye reduction based ELISA method
[5] = test system: Trypanosoma cruzi; experiment: Antitrypanosomal activity against Trypanosoma cruzi Y epimastigotes at 16 uM incubated for 48 hrs by resazurin dye reduction based ELISA method
[6] = test system: Trypanosoma cruzi; experiment: Antitrypanosomal activity against Trypanosoma cruzi Y epimastigotes at 32 uM incubated for 48 hrs by resazurin dye reduction based ELISA method
[7] = test system: Trypanosoma cruzi; experiment: Antitrypanosomal activity against Trypanosoma cruzi Y epimastigotes at 8 uM incubated for 48 hrs by resazurin dye reduction based ELISA method
[8] = test system: Trypanosoma cruzi; experiment: Antitrypanosomal activity against Trypanosoma cruzi DM28 epimastigotes at 128 uM incubated for 48 hrs by resazurin dye reduction based ELISA method; conditions: DM28, 48 h

Row | SMILES | inhibition at 256 µM [1] | inhibition at 256 µM [2] | inhibition at 128 µM [3] | inhibition at 64 µM [4] | inhibition at 16 µM [5] | inhibition at 32 µM [6] | inhibition at 8 µM [7] | inhibition at 128 µM [8]
1 | O=C(N/N=C1\C(=O)Nc2ccccc21)Nc1n[nH]c(=S)s1 | 30% | 9% |  |  |  |  |  | 
2 | C/C(CC(C)C)=N/NC(=O)Nc1nnc(S)s1 | 43% | 20% |  |  |  |  |  | 
3 | O=C(N/N=C1\C(=O)Nc2ccc(Br)cc21)Nc1n[nH]c(=S)s1 | 20% | 22% |  |  |  |  |  | 
4 | O=C(Cn1ccnc1[N+](=O)[O-])NCc1ccccc1 [BENZNIDAZOLE] | 91% |  | 80% | 75% | 66% | 60% | 51% | 
5 | C/C(=N/NC(=O)Nc1nnc(S)s1)c1ccc(Cl)cc1 | 32% | 0% |  |  |  |  |  | 
6 | O=C(N/N=C\c1ccc(Cl)cc1)Nc1nnc(S)s1 | 67% | 10% | 51% |  |  |  |  | 
7 | O=C(N/N=C\c1ccccc1)Nc1nnc(S)s1 | 87% | 87% | 84% | 64% |  |  |  | 43%
8 | O=C(N/N=C\c1cccc(Br)c1)Nc1nnc(S)s1 | 58% | 34% |  |  |  |  |  | 
9 | COc1cccc(/C=N\NC(=O)Nc2nnc(S)s2)c1 | 77% | 43% | 44% |  |  |  |  | 
